Assay results taken from paper PMC6099102, “Effect of the Nature of Donor Atoms on the Thermodynamic, Kinetic and Relaxation Properties of Mn(II) Complexes Formed With Some Trisubstituted 12-Membered Macrocyclic Ligands” (Frontiers in Chemistry, 2018).
Where two headings read alike, the source gives them in different places.

How the values were obtained:
[1] = cited from earlier work
[2] = Dissociation kinetics of the Mn(II) complexes (acid catalyzed dissociation, metal or ligand exchange reactions); format: physicochemical; conditions: I = 0.15 M NaCl, 25 °C; for t1/2 pH = 7.4 cM = 10^−5 M: half-life of dissociation calculated for pH 7.4, 10 μM exchanging metal ion; for t1/2 0.1 M HCl: half-life of dissociation calculated for 0.1 M H+
Procedure: The dissociation reactions were followed by UV-vis spectrophotometry at 269 nm for the pyclen derivatives or at 300 nm for other complexes in the pH range of 3.6–5.0 for the exchange reactions with Cu(II) and up to pH = 6.0 when Zn(II) was used as a ligand scavenger. The acid catalyzed dissociation reactions were performed in the HCl concentration range of 0.05–1.0 M. The concentration of the complexes in the samples was 0.25 mM, while the concentration of the exchanging metal ion in the metal initiated transchelation reactions was 10–40 times higher to ensure pseudo-first-order conditions. Relaxometry was used to follow the transchelation reactions of [Mn(DOTAM)]^2+, [Mn(DO3AM^H)]^2+, [Mn(DO3A)]^−, [Mn(PCTA)]^− and [Mn(ODO3A)]^− with Cu(II)/Zn(II) ions in the pH range of 3.6–5.5 (Figures S17–S19 in Supplementary Material). The concentration of the complexes in these samples was set to 1.0–2.0 mM to achieve relatively large change during the dissociation reaction. […] The temperature was maintained at 25 °C and the ionic strength of the solutions was kept constant at 0.15 M with NaCl. N,N′-dimethyl- (DMP) and N-methyl-piperazine (NMP) buffers (log K2H = 4.18 and 4.90 at 25 °C and I = 0.15 M NaCl, respectively) were used at 0.05 M concentration to keep the pH constant. The pseudo-first-order rate constants (kobs) were calculated by fitting the absorbance or relaxivity-time data pairs to Equation (1) (1) Xt=(X0-Xe)e^-kobst+Xe where Xt, X0, and Xe are the absorbance or relaxivity at time t, at the start and at equilibrium, respectively. The calculations were performed with the computer program Micromath Scientist, version 2.0 (Salt Lake City, UT, USA) using a standard least-squares procedure.
The kinetic inertness of the Mn(II) complexes is the other important parameter for the complexes considered for use in vivo. The inertness of Mn(II) complexes formed with trisubstituted 12-memberd macrocyclic ligands were characterized either by studying the rates of acid catalyzed dissociation or by studying transmetallation reactions occurring between the complexes and a suitable exchanging metal ion such as Zn(II) or Cu(II). The demetallation reactions of labile complexes were performed at high pH by following the ligand exchange reactions with trans-CDTA and DTPA ligands. The demetallation reactions were studied in the presence of a large Cu(II)/Zn(II)/trans-CDTA/DTPA excess or by using high acid concentration in order to ensure pseudo-first-order conditions (Equation 6). Scheme 1 outlines all the possible dissociation pathways for the Mn(II) complexes. […] The reactions of the released Mn(II) and L ligand with the exchanging L' and M' reactants are assumed to be very rapid.
The rate of dissociation can be expressed by the Equation (6), where kobs is the pseudo-first-order rate constant and [Mn(L)]t is the total concentration of the species containing [Mn(L)] complex. The [Mn(L)]t will differ slightly depending on the experimental conditions (in the presence of a large metal or ligand excess). As [Mn(L)]t = [Mn(L)] + [Mn(HL)] + [Mn(H2L)] + [Mn(L)M] + [Mn(L)(L')] + [Mn(HL)(L')] for reactions performed at high pH (in the pH range of 3.0–5.0 often applied in Cu(II) exchange reactions) will involve fewer protonated species while the acid catalyzed dissociation reactions run in the strongly acidic media (0.1–1.0 M acid concentration range) predominantly contain protonated species ([Mn(L)]t = [Mn(L)]+[Mn(HL)]+[Mn(H2L)]). (6) -d[MnL]t/dt=kobs[MnL]t
By taking into account the various complex species and the possible reaction pathways as well as the protonation and stability constants of the reactive intermediates, the following equation (Equation 7) can be derived to describe the rates of dissociation. […]

[3] = Longitudinal water proton relaxivity (r1p) of the Mn(II) complexes; format: physicochemical
Procedure: The relaxometric data were collected using a Bruker Minispec MQ20 NMR relaxometer. […] A datapoint plotted on figures represents an average of 5–6 T1 measurements (Figures S3–S9 in Supplementary Material). The data were fitted by using the molar r1p relaxivity value of the MnCl2 ([…] at 0.49 T and 25 °C). The equilibrium constants were calculated using the PSEQUAD program (Zékány and Nagypál, [1985]).
The longitudinal water proton relaxation rates (r1 = 1/T1-1/Tw) were measured at 20 MHz with a Bruker Minispec MQ-20 relaxometer (Bruker Biospin, Germany). Samples were thermostated by using a circulating water bath at 25.0 ± 0.2 °C. The longitudinal relaxation times (T1) were measured by the inversion-recovery method (180° − τ − 90°), averaging 5–6 data points collected for each concentration point obtained from 14 different τ values (τ values ranging between 0 to at least 6 times the expected T1). The relaxivity of the complexes was determined by titrating a nearly 1.0 mM ligand solution with a Mn(II) stock solution at pH = 7.22–7.43 (50 mM HEPES buffer, I = 0.15 M NaCl, 25 °C). Under these conditions, the only Mn(II) ion containing species present in solution is the [Mn(L)], which was supported by the r1 vs. pH profiles. The relaxivity of the complex was determined as the slope of the strait line obtained by plotting 1/T1p values as a function of Mn(II) concentration for samples with [Ligand] > [Mn(II)]. The relaxivity of [Mn(DOTP)]^6− and [Mn(DO3P)]^4− was determined in the pH range of 10.0–11.0 and 8.5–9.3, respectively where mainly the [Mn(DO3P)]^4− and [Mn(DOTP)]^6− complex exists in solution (Figures S4 and S9 in Supplementary Material).
The relaxivity (r1p, mM^−1s^−1) is defined as the longitudinal water proton relaxation rate in a solution containing 1.0 mM concentration of the paramagnetic species. It characterizes the efficiency of a paramagnetic metal chelate to enhance the solvent proton relaxation rate at a given magnetic field (usually 20 MHz) and temperature. The inner-sphere contribution to relaxivity is directly proportional to the number of metal bound water molecules (q), and therefore, relaxivity values may provide some useful information on the hydration state of paramagnetic complexes of similar molecular weights and electronic relaxation times. […] The r1p values of the Mn(II) complexes formed with heptadentate 12-membered macrocyclic ligands were determined at 0.5 T field strength and 25 °C and reported in Table 4 along with some relaxivity data published for the complexes of hexa-, hepta- and octadentate ligands. […] Below these pH ranges the phosphonate moieties undergo protonation, which further increases the relaxivity (2.60–2.90 mM^−1s^−1 values were observed near pH = 7.4, see Supplementary Material). Similar increase in the relaxivity (to 3.20 mM^−1s^−1 at 20 MHz, 37 °C) is observed for the [Mn(DOTA)]^2− complex upon its protonation and formation of the thermodynamically stable diprotonated [Mn(H2DOTA)] complex that exists as a non-hydrated chelate both in solution and in the solid state (Wang and Westmoreland, [2009]). The relaxivity of the diprotonated species at t → 0 time point was determined from the extrapolation of the relaxivity vs. time data collected after acidification of the samples containing the complexes. The X-ray crystallographic structure of [Mn(H2DOTA)] indicates the protonation of two trans carboxylate moieties (e.g., the coordination around the metal ion is similar to that observed in [Mn(trans-DO2A)] as determined by DFT calculations). Thus, the relaxivity of the diprotonated [Mn(H2DOTA)] and [Mn(H2DOTMA)] complexes is expected to be similar to that of [Mn(trans-DO2A)] (when q = 0). The value obtained by us is considerably higher, which highlights the importance of prototropic exchange as a useful tool to improve the relaxivity of the complexes (however, it has to be underlined that the protonation of the complex generally leads to a decrease in kinetic inertness).

[4] = 0.5 T field strength, 25 °C and pH = 7.4
[5] = ligand exchange reaction with trans-CDTA^4− or DTPA^5− in the pH range 8-9.5

t1/2 pH = 7.4 cM = 10^−5 M [2]	r1p [3, 4] [mM⁻¹ s⁻¹]	t1/2 0.1 M HCl [2] [s]	Compound	k1 (proton-assisted dissociation) [2]	also measured
1.1 × 10^4 h	1.18 to 1.31	–	O=C([O-])CN1CCNCCN(CC(=O)[O-])CCN(CC(=O)[O-])CC1.[Mn+2] [[Mn(DO3A)]^−]	0.45 ± 0.03 M⁻¹ s⁻¹	r1p ([1]; ref Rolla et al. ([2013])): 1.30 mM⁻¹ s⁻¹; k2 (proton-assisted dissociation) [2]: (3.2 ± 0.3) × 10^2 M^−2s^−1
5.2 × 10^3 h	1.33	7.4	NC(=O)CN1CCNCCN(CC(N)=O)CCN(CC(N)=O)CC1.[Mn+2] [[Mn(DO3AM^H)]^2+]	0.94 ± 0.02 M⁻¹ s⁻¹	–
3 × 10^−3 h	–	–	O=P([O-])([O-])CN1CCNCCN(CP(=O)([O-])[O-])CCN(CP(=O)([O-])[O-])CC1.[Mn+2] [[Mn(DO3P)]^4−]	–	k1 (proton-assisted dissociation) [2, 5]: (2.4 ± 0.2) × 10^5 M^−1s^−1; k2 (proton-assisted dissociation) [2, 5]: (2.2 ± 0.3) × 10^14 M^−2s^−1; r1p ([3]; 0.5 T, 25 °C, determined in the pH range of 8.5–9.3): 2.23^[b] mM^−1s^−1; relaxivity ([3]; near pH = 7.4, protonated phosphonate moieties): 2.60 to 2.90 mM⁻¹ s⁻¹
–	1.11	430	NC(=O)CN1CCN(CC(N)=O)CCN(CC(N)=O)CCN(CC(N)=O)CC1.[Mn+2] [[Mn(DOTAM)]^2+]	(1.6 ± 0.03) × 10^−2 M^−1s^−1	r1p ([1]; 0.5 T field strength (20 MHz) and 37 °C, ref Wang and Westmoreland ([2009])): 0.96 mM⁻¹ s⁻¹
1.8 × 10^2 h	1.40	–	O=C([O-])CN1CCOCCN(CC(=O)[O-])CCN(CC(=O)[O-])CC1.[Mn+2] [[Mn(ODO3A)]^−]	27 ± 2 M⁻¹ s⁻¹	k2 (proton-assisted dissociation) [2]: (1.5 ± 0.3) × 10^5 M^−2s^−1
–	1.44	350	O=C([O-])CNC(=O)CN1CCN(CC(=O)NCC(=O)[O-])Cc2cccc(n2)CN(CC(=O)NCC(=O)[O-])CC1.[Mn+2] [[Mn(PC3AM^Gly)]^−]	–	k1 (proton-assisted dissociation) ([2]; proton-assisted dissociation of the [Mn(H3L)] complex): (1.64 ± 0.02) × 10^−2[c] M^−1s^−1; k0 (spontaneous dissociation) ([2]; spontaneous dissociation of the [Mn(H3L)] complex): (3.4 ± 0.2) × 10^−4[c] s^−1
–	1.21	650	NC(=O)CN1CCN(CC(N)=O)Cc2cccc(n2)CN(CC(N)=O)CC1.[Mn+2] [[Mn(PC3AM^H)]^2+]	(1.07 ± 0.01) × 10^−2 M^−1s^−1	–
